Assay results reported in ChEMBL document CHEMBL1909046, “DrugMatrix in vitro pharmacology data”.

How the values were obtained:
[1] = DRUGMATRIX: GABAA, Flunitrazepam, Central radioligand binding (ligand: [3H] Flunitrazepam); format: cell membranes, Rattus norvegicus, Wistar, Brain, Membrane; details: Not Active = under 50% inhibition at 10 µM
[2] = DRUGMATRIX: Imidazoline I2, Central radioligand binding (ligand: [3H] Idazoxan); format: cell membranes, Rattus norvegicus, Wistar, Cerebral cortex, Membrane; details: Not Active = under 50% inhibition at 10 µM
[3] = target: Delta-type opioid receptor (Homo sapiens, UniProt P41143); format: cell membranes, HEK293, Membrane; details: hek293; note: in other assays of this panel Not Active means under 50% inhibition at 10 µM
[4] = target: T1, Progesterone receptor (Bos taurus, UniProt Q690N0); assay: DRUGMATRIX: Progesterone radioligand binding (ligand: [3H] R-5020); format: tissue-based, Uterus; details: Not Active = under 50% inhibition at 10 µM
T1 sequence (Q690N0 whole entry): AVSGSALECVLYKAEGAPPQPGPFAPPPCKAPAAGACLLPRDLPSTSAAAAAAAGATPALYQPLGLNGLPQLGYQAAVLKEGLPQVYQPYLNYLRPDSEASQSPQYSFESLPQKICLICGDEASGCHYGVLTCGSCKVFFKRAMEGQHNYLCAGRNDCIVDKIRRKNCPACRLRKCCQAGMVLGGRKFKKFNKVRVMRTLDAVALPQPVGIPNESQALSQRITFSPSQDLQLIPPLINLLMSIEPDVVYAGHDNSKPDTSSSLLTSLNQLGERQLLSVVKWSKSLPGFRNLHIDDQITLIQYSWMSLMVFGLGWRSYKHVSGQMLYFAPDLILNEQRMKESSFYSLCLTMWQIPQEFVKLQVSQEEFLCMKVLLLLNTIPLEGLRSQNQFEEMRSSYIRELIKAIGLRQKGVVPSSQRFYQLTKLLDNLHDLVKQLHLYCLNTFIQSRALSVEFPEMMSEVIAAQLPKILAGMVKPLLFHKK

[5] = target: Mitogen-activated protein kinase 1 (Homo sapiens, UniProt P28482); assay: DRUGMATRIX: Protein Serine/Threonine Kinase, ERK2 enzyme inhibition (substrate: Myelin Basic Protein); set-up: species or system Escherichia coli; details: Not Active = under 50% inhibition at 10 µM
[6] = target: T2, Cytochrome P450 2A6 (Homo sapiens, UniProt P11509); details: bti-tn-5b1-4; note: in other assays of this panel Not Active means under 50% inhibition at 10 µM
T2 sequence (P11509 whole entry): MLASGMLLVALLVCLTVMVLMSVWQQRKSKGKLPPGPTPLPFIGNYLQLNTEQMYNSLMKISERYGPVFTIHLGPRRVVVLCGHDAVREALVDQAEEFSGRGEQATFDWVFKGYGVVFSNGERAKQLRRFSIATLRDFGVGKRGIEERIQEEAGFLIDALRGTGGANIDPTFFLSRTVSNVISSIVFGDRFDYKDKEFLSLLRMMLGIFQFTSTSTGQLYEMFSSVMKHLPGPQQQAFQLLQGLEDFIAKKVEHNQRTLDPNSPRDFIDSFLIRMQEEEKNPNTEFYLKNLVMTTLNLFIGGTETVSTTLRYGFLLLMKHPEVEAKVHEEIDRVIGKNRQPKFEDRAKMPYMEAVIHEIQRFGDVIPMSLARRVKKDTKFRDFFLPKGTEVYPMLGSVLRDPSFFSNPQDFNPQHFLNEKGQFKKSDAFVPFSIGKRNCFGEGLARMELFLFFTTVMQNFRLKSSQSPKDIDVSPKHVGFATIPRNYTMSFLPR

Mitogen-activated protein kinase 1, sequence (P28482 whole entry): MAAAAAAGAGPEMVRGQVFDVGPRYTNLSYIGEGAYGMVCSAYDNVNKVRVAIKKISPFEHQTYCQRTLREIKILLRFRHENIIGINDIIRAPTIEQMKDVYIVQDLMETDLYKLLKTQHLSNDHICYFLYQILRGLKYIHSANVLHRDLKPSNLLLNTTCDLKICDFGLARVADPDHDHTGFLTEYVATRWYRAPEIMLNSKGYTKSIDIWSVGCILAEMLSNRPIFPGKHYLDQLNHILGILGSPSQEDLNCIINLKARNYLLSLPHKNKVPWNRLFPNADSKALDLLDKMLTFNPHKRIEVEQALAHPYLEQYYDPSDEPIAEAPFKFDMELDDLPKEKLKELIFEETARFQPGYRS
Delta-type opioid receptor, sequence (P41143 whole entry): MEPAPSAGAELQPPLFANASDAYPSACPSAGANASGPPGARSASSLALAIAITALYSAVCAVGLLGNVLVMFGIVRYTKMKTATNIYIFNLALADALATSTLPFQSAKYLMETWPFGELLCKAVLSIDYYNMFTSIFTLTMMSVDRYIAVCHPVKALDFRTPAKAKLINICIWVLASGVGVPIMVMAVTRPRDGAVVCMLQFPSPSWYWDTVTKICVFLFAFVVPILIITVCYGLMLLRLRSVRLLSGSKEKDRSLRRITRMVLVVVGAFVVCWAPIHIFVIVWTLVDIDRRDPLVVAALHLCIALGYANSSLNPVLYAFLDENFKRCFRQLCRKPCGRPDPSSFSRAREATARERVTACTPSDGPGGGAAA

SMILES | IC50 [1] | Ki [1] | IC50 [2] | Ki [2] | IC50 [3] | IC50 [4] | IC50 [5] | IC50 [6] | Ki [6] | IC50 ([4]; read-out: IC50) [nM] | Ki ([4]; read-out: Ki) [nM]
NC(=O)N1c2ccccc2C=Cc2ccccc21 [CARBAMAZEPINE] | Not Active | Not Active | Not Active | Not Active | Not Active | Not Active | Not Active | Not Active | Not Active | – | –
CCOC(=O)n1ccn(C)c1=S [CARBIMAZOLE] | Not Active | Not Active | Not Active | Not Active | Not Active | Not Active | Not Active | Not Active | Not Active | – | –
Oc1ccccc1O [CATECHOL] | Not Active | Not Active | Not Active | Not Active | Not Active | Not Active | Not Active | Not Active | Not Active | – | –
CO[C@@]1(NC(=O)CSCC#N)C(=O)N2C(C(=O)O)=C(CSc3nnnn3C)CS[C@@H]21 [CEFMETAZOLE] | Not Active | Not Active | Not Active | Not Active | Not Active | Not Active | Not Active | Not Active | Not Active | – | –
CN(C(=O)CCCOc1ccc2[nH]c(=O)ccc2c1)C1CCCCC1 [CILOSTAMIDE] | Not Active | Not Active | Not Active | Not Active | Not Active | Not Active | Not Active | Not Active | Not Active | – | –
CC(C)(Oc1ccc(C2CC2(Cl)Cl)cc1)C(=O)O (centres undefined) [CIPROFIBRATE] | Not Active | Not Active | Not Active | Not Active | Not Active | Not Active | Not Active | Not Active | Not Active | – | –
Nc1nc(Cl)nc2c1ncn2[C@H]1C[C@H](O)[C@@H](CO)O1 [CLADRIBINE] | Not Active | Not Active | Not Active | Not Active | Not Active | Not Active | Not Active | Not Active | Not Active | – | –
CC[C@H]1OC(=O)[C@H](C)[C@@H](O[C@H]2C[C@@](C)(OC)[C@@H](O)[C@H](C)O2)[C@H](C)[C@@H](O[C@@H]2O[C@H](C)C[C@H](N(C)C)[C@H]2O)[C@](C)(OC)C[C@@H](C)C(=O)[C@H](C)[C@@H](O)[C@]1(C)O [CLARITHROMYCIN] | Not Active | Not Active | Not Active | Not Active | Not Active | Not Active | Not Active | Not Active | Not Active | – | –
O=C(O)c1cc(=O)c2c(OCC(O)COc3cccc4oc(C(=O)O)cc(=O)c34)cccc2o1 [CROMOLYN] | Not Active | Not Active | Not Active | Not Active | Not Active | Not Active | Not Active | Not Active | Not Active | – | –
O=P1(N(CCCl)CCCl)NCCCO1 (centres undefined) [CYCLOPHOSPHAMIDE ANHYDROUS] | Not Active | Not Active | Not Active | Not Active | Not Active | Not Active | Not Active | Not Active | Not Active | – | –
CC(=O)O[C@]1(C(C)=O)CC[C@H]2[C@@H]3C=C(Cl)C4=CC(=O)[C@@H]5C[C@@H]5[C@]4(C)[C@H]3CC[C@@]21C [CYPROTERONE ACETATE] | Not Active | Not Active | Not Active | Not Active | Not Active | – | Not Active | Not Active | Not Active | 37 | 4.84
Nc1nc(N)nc(NC2CC2)n1 [CYROMAZINE] | Not Active | Not Active | Not Active | Not Active | Not Active | Not Active | Not Active | Not Active | Not Active | – | –
